Results published in US10173971B2, “Picolinamides with fungicidal activity” (DOW AGROSCIENCES LLC, priority 2014, dated 2019).
Like-named read-outs stand apart in the source and are kept apart here.

Tests used:
Zymoseptoria tritici = assay: Fungicidal activity: leaf blotch of wheat (SEPTTR), wheat seedlings, booth sprayer to run-off or track spray; format: in vivo; conditions: for pest or weed control at 100 ppm: High-Volume Cereal Activity at 100 ppm; for pest or weed control at 121.5 g/ha: Low-Volume Cereal Activity at 121.5 g/H
Description: All fungicides were evaluated using the aforementioned method for their activity vs. all target diseases. Wheat leaf blotch and brown rust activity were also evaluated using track spray applications, in which case the fungicides were formulated as EC formulations, containing 0.1% Trycol 5941 in the spray solutions. Wheat plants (variety Yuma) were grown from seed in a greenhouse in 50% mineral soil/50% soil-less Metro mix until the first leaf was fully emerged, with 7-10 seedlings per pot. These plants were inoculated with an aqueous spore suspension of Zymoseptoria tritici either prior to or after fungicide treatments. After inoculation the plants were kept in 100% relative humidity (one day in a dark dew chamber followed by two to three days in a lighted dew chamber at 20° C.) to permit spores to germinate and infect the leaf. The plants were then transferred to a greenhouse set at 20° C. for disease to develop. When disease symptoms were fully expressed on the 1st leaves of untreated plants, infection levels were assessed on a scale of 0 to 100 percent disease severity. Percent disease control was calculated using the ratio of disease severity on treated plants relative to untreated plants.

Puccinia triticina = assay: Fungicidal activity: wheat brown rust (PUCCRT), wheat seedlings, booth sprayer to run-off or track spray; format: in vivo; conditions: for pest or weed control at 100 ppm: High-Volume Cereal Activity at 100 ppm; for pest or weed control at 121.5 g/ha: Low-Volume Cereal Activity at 121.5 g/H
Description: All fungicides were evaluated using the aforementioned method for their activity vs. all target diseases. Wheat leaf blotch and brown rust activity were also evaluated using track spray applications, in which case the fungicides were formulated as EC formulations, containing 0.1% Trycol 5941 in the spray solutions. Wheat plants (variety Yuma) were grown from seed in a greenhouse in 50% mineral soil/50% soil-less Metro mix until the first leaf was fully emerged, with 7-10 seedlings per pot. These plants were inoculated with an aqueous spore suspension of Puccinia triticina either prior to or after fungicide treatments. […] The plants were then transferred to a greenhouse set at 24° C. for disease to develop. Fungicide formulation, application and disease assessment followed the procedures as described in the Example A.

[1] = 24 h, 1 Day Protectant, read-out: SEPTTR 1DP
[2] = 3DC (Day Curative), read-out: SEPTTR 3DC
[3] = 24 h, 1 Day Protectant, read-out: PUCCRT 1DP
[4] = 72 h, 3 Day Curative, read-out: SEPTTR 3DC
[5] = 72 h, 3 Day Curative, read-out: PUCCRT 3DC
[6] = 3DC (Day Curative), read-out: PUCCRT 3DC

Structure (SMILES) | pest or weed control at 100 ppm (Zymoseptoria tritici; [1]) [%] | pest or weed control at 100 ppm (Zymoseptoria tritici; [2]) [%] | pest or weed control at 100 ppm (Puccinia triticina; [3]) [%] | pest or weed control at 121.5 g/ha (Zymoseptoria tritici; [1]) [%] | pest or weed control at 121.5 g/ha (Zymoseptoria tritici; [4]) [%] | pest or weed control at 121.5 g/ha (Puccinia triticina; [3]) [%] | pest or weed control at 121.5 g/ha (Puccinia triticina; [5]) [%] | pest or weed control at 100 ppm (Puccinia triticina; [6]) [%]
CC[C@H](NC(=O)c1nccc(OC)c1O)C(=O)O[C@@H](C)C(Cc1cccc(OC)c1)Cc1cccc(OC)c1 [compound 153] | 0 to 80 | 0 to 80 | 80 to 100 | – | – | – | – | –
CCOCC(=O)OCOc1c(OC)ccnc1C(=O)N[C@@H](C)C(=O)O[C@@H](C)[C@@H](COCc1ccccc1)Cc1ccccc1 [compound 234] | – | – | – | 0 to 80 | 80 to 100 | 80 to 100 | 80 to 100 | –
COc1ccnc(C(=O)N[C@H](C(=O)OC(C)C(Cc2ccccc2)Cc2ccccc2)C(C)C)c1O (stereo partly shown) [compound 148] | 0 to 80 | – | 0 to 80 | – | – | – | – | –
COc1ccnc(C(=O)N[C@H](C(=O)OC(C)C(Cc2ccccc2)Cc2ccccc2)C(C)C)c1OC(C)=O (stereo partly shown) [compound 261] | – | – | – | 0 to 80 | 0 to 80 | 80 to 100 | 0 to 80 | –
COc1ccnc(C(=O)N[C@@H](C)C(=O)OC(C)C(Cc2cccc(F)c2)Cc2cccc(F)c2)c1OCOC(C)=O (stereo partly shown) [compound 267] | – | – | – | 0 to 80 | 0 to 80 | 0 to 80 | – | –
CCCO[C@@H](CC)[C@@H](Cc1ccccc1)[C@H](C)OC(=O)[C@@H](C)NC(=O)c1nccc(OC)c1OCOC(C)=O [compound 163] | 0 to 80 | 0 to 80 | 80 to 100 | – | – | – | – | 80 to 100
CCC[C@@H](Cc1ccccc1)[C@H](C)OC(=O)[C@H](C)NC(=O)c1nccc(OC)c1O [compound 113] | 0 to 80 | 80 to 100 | 80 to 100 | – | – | – | – | 80 to 100
COc1ccnc(C(=O)N[C@@H](C)C(=O)O[C@@H](C)[C@H](Cc2ccc(F)cc2)C(C)(C)OCc2ccccc2)c1OCOC(C)=O [compound 241] | – | – | – | 80 to 100 | 80 to 100 | 80 to 100 | 0 to 80 | –
CCCO[C@@H](CC)[C@@H](Cc1ccccc1)[C@H](C)OC(=O)[C@H](C)NC(=O)c1nccc(OC)c1O [compound 91] | 0 to 80 | 80 to 100 | 80 to 100 | – | – | – | – | 80 to 100
COc1ccc(C[C@H](COCC2CC2)[C@H](C)OC(=O)[C@H](C)NC(=O)c2nccc(OC)c2OCOC(C)=O)cc1Cc1ccccc1 [compound 281] | – | – | – | 0 to 80 | 80 to 100 | 80 to 100 | 0 to 80 | –
COc1ccc(C[C@@H]([C@H](C)OC(=O)[C@H](C)NC(=O)c2nccc(OC)c2OCOC(C)=O)C(C)(C)OCC2CC2)cc1 [compound 278] | – | – | – | 0 to 80 | 0 to 80 | 80 to 100 | 0 to 80 | –
CCCC[C@H](c1ccccc1)[C@H](C)OC(=O)[C@H](C)NC(=O)c1nccc(OC)c1OC(C)=O [compound 197] | – | – | – | 80 to 100 | 80 to 100 | 80 to 100 | 80 to 100 | –
COc1ccnc(C(=O)N[C@@H](C)C(=O)OC(C)C(Cc2cccc(F)c2)Cc2cccc(F)c2)c1O (stereo partly shown) [compound 150] | 80 to 100 | – | 80 to 100 | – | – | – | – | –
COc1ccc(C[C@H](COc2ccc(F)cc2F)[C@H](C)OC(=O)[C@H](C)NC(=O)c2nccc(OC)c2OCOC(C)=O)cc1 [compound 282] | – | – | – | 0 to 80 | 0 to 80 | 80 to 100 | – | –
CCCOC(C)(C)[C@@H](Cc1ccc(OC)c(Cc2ccccc2)c1)[C@H](C)OC(=O)[C@H](C)NC(=O)c1nccc(OC)c1O [compound 146] | 0 to 80 | 0 to 80 | 0 to 80 | – | – | – | – | –
COc1ccnc(C(=O)N[C@@H](C)C(=O)O[C@@H](C)[C@@H](COCCC(C)C)Cc2ccc(F)cc2)c1O [compound 140] | 0 to 80 | 0 to 80 | – | – | – | – | – | 0 to 80
